Measured values published in patent US20090258889A1, “PESTICIDAL COMPOSITIONS” (Whitmire Micro-Gen Research Laboratories, Inc., priority 2008, published 2009).
“And” between values parts separate entries of the source, which are not always exact repeats. Equal entries are not always repeated.

Legend:
German cockroaches = test: Topical application toxicity test: mortality of adult German cockroaches 24 hours after treatment; format: in vivo, Blattella germanica (German cockroach); conditions: for pest or weed control at 2 mg: read-out: Proportion dead at 24 hr, compound alone, 2.00 mg
Experimental: Toxicity evaluations were performed on 7-14 day old adult male and female German cockroaches (SCJ Strain, S.C. Johnson & Son, Racine, Wis.). Approximately 12 cockroaches were transferred to individual 100×20 mm polystyrene Petri dishes and anesthetized with a 15-25 second exposure to carbon dioxide. The inside edge of each Petri dish was lightly coated with mineral oil plus petroleum jelly in a 1:3 (wt/wt) ratio to minimize escape. Anesthetized cockroaches were positioned with their ventral side up, and a 1 μl drop of the diluted test composition was applied to the area between the meso- and metathoracic legs using a Rainin L-10, 10 μl capacity pipette (Rainin Instrument, LLC, Oakland, Calif.). Five replications of 12 male cockroaches were done for each test composition. Separate tests were done using female cockroaches. Results were evaluated at 24 hours following treatment. Cockroaches were scored as either alive (dorsal side up, active movement when abdomen prodded with dissecting probe) or moribund/dead (dorsal side up and no movement when abdomen prodded or ventral side up and insect unable to right itself).
The compositions comprising alcohol and/or mineral oil are described in Table 13.
In this example, the effectiveness of compositions comprising various compounds and/or mineral oil at killing cockroaches was tested.

cockroaches = test: Dose-response mortality test with probit analysis to estimate LD50 and LD10 for cockroaches; format: in vivo, cockroach
Experimental: In this example, various mineral oils and alcohols were tested to determine, for cockroaches, the LD50 and LD10 for each.
PD23 and PD28 mineral oils were obtained from Sonneborn LLC, Mahwah, N.J. The physical properties of these oils are shown in Table 11. Each mineral oil was tested to determine the LD50 and LD10 (Table 12).
The tested alcohols were obtained from Sigma-Aldrich Corp., St. Louis, Mo. Each alcohol was tested to determine the LD50 and LD10 (Table 12).

[1] = Blattella germanica, topical, 24 h, topical, 24 h
[2] = compound alone, 2.00 mg, topical, 24 h
[3] = Table 17, composite data, amounts as in label
[4] = compound alone, 0.80 mg, topical, 24 h
[5] = Table 7, per replicate, male cockroaches, 24 hours, listed as d-limonene (40%)
[6] = compound alone, 1.50 mg, topical, 24 h

## CC(=O)OCC(COC(C)=O)OC(C)=O [Triacetin]
German cockroaches; cockroaches, 24 hours
  increase in mortality when combined with PD23 mineral oil, compared to the other compounds tested (in words): greatest increase in mortality

## CCOCC [diethyl ether]
German cockroaches; [1]
  pest or weed control at 2 mg: 0%
German cockroaches; [2]
  # dead at 24 h: 0

## CO [Methanol]
cockroaches
  LD10 mg/insect (95% CI): Estimated at ~3.000 mg/insect
  LD50 mg/insect (95% CI): >7.00 mg/insect

## CC(Cl)(Cl)Cl [Methyl chloroform]
German cockroaches; Table 17, composite data
  Proportion dead at 24 h: 0.095
German cockroaches; [3]
  # dead at 24 h: 2
German cockroaches; [2]
  # dead at 24 h: 1
  Proportion dead at 24 hr: 0.091 and 0.100

## CCOCCO [2-ethoxyethanol]
German cockroaches; cockroaches, 24 hours
  increase in mortality when combined with PD23 mineral oil, compared to the other compounds tested (in words): greatest increase in mortality

## Diisopropyl biphenyl [Diisopropyl biphenyl Nu-solv]
German cockroaches; Table 17, composite data
  Proportion dead at 24 h: 0.000
German cockroaches; [3]
  # dead at 24 h: 0
German cockroaches; [4]
  # dead at 24 h: 0
  Proportion dead at 24 hr: 0.000

## CCCCCCO [Composition 1-hexanol, 1-hexanol]
cockroaches
  LD10 mg/insect (95% CI): 0.452 mg/insect
  LD50 mg/insect (95% CI): 0.718 mg/insect

## O=C1CCCO1 [gamma butyrolactone]
German cockroaches; Blattella germanica, topical, 24 h, read-out: Proportion dead at 24 hr, compound alone, 0.25 mg, topical, 24 h
  pest or weed control at 0.25 mg: 42.9%
German cockroaches; cockroaches, 24 hours
  increase in mortality when combined with PD23 mineral oil, compared to the other compounds tested (in words): greatest increase in mortality

## C=C(C)[C@H]1CC=C(C)CC1 [d-limonene]
German cockroaches; Table 7, per replicate, male cockroaches, 1 μl, remainder acetone, 24 hours, listed as d-limonene (40%)
  # dead: 1 and 0 and 2 (2×)
German cockroaches; [5]
  Arcsine square root % dead: 15.5 and 0 and 21.42 and 22.21
  Proportion dead: 0.07143 and 0 and 0.1333 and 0.1429
  Square root % dead: 0.2673 and 0 and 0.3651 and 0.378
German cockroaches; Table 8, combined data for each treatment group of Table 7
  Average arcsine sq. root % dead: 14.78

## CC(=O)c1ccccc1 [Acetophenone]
German cockroaches; Blattella germanica, topical, 24 h, compound alone, 0.10 mg, topical, 24 h, read-out: Proportion dead at 24 hr
  pest or weed control at 0.1 mg: 0%
German cockroaches; cockroaches, 24 hours
  increase in mortality when combined with PD23 mineral oil, compared to the other compounds tested (in words): greatest increase in mortality
German cockroaches; compound alone, 0.10 mg, topical, 24 h
  # dead at 24 h: 0

## CC(=O)OC(C)C [Isopropyl acetate]
German cockroaches; Blattella germanica, topical, 24 h, compound alone, 1.00 mg, topical, 24 h, read-out: Proportion dead at 24 hr
  pest or weed control at 1 mg: 10%

## CC(C)(C)O [tertiary butyl alcohol]
German cockroaches; Table 13, per replicate (10-16 treated), amounts as in label, listed as t-butyl alcohol (0.5 mg)
  # dead at 24 h: 0 (3×) and 2
German cockroaches; Table 13, per replicate, amounts as in label, listed as t-butyl alcohol (0.5 mg)
  Proportion dead at 24 h: 0.000 (3×) and 0.182
German cockroaches; Table 14, composite data
  Proportion dead at 24 h: 0.045
German cockroaches; Table 14, composite data, amounts as in label
  # dead at 24 h: 2

## ClCCl [Dichloromethane (methylene chloride)]
German cockroaches; [6]
  # dead at 24 h: 0
  Proportion dead at 24 hr: 0.000

## CCO [Ethanol]
cockroaches
  LD10 mg/insect (95% CI): 1.760 mg/insect
  LD50 mg/insect (95% CI): 2.361 mg/insect

## c1ccncc1 [Pyridine]
German cockroaches; cockroaches, 24 hours
  increase in mortality when combined with PD23 mineral oil, compared to the other compounds tested (in words): greatest increase in mortality

## CCCCCCCO [Composition 1-heptanol, 1-heptanol]
cockroaches
  LD10 mg/insect (95% CI): 0.462 mg/insect
  LD50 mg/insect (95% CI): 0.791 mg/insect
German cockroaches; cockroaches, 24 h
  synergy with Exxsol D95 mineral oil (in words): significant synergy

## CC(C)O [Isopropyl alcohol]
cockroaches
  LD10 mg/insect (95% CI): 0.676 mg/insect
  LD50 mg/insect (95% CI): 1.172 mg/insect

## COCOC.COCOC [Dimethoxymethane (methylal)]
German cockroaches; [2]
  # dead at 24 h: 0
  Proportion dead at 24 hr: 0.000

## COC(C)(C)C [Methyl t-butyl ether]
German cockroaches; [1]
  pest or weed control at 2 mg: 16.7%

## CCCCCCCCCCO [Composition 1-decanol, 1-decanol]
cockroaches
  LD10 mg/insect (95% CI): 0.275 mg/insect
  LD50 mg/insect (95% CI): 0.421 mg/insect
